From patent EP0264138B1, “Novel compound DC-102 and process for production thereof” (KYOWA HAKKO KOGYO CO., LTD., priority 1986, dated 1988)

Tested on: lymphocytic leukemia P388
Assay: Therapeutical effect against lymphocytic leukemia P388
Assay type: in vivo, male CDF₁ mice
Settings: dose 6 mg/kg intraperitoneally
Description: Five male CDF₁ mice each having a weight of about 22 g were used for each group as test animals, and 1 x 10⁶ cells of lymphocytic leukemia P388 were implanted intraperitoneally in the test animals. 24 hours after implantation, 0.2 mℓ of a phosphate buffer saline (hereinafter referred to as PBS) containing DC-102 was intraperitoneally administered. For comparison, 0.2 mℓ of PBS solution containing mitomycin C was intraperitoneally administered 24 hours after implantation of the tumor cells. The mean survival time (MST) after implantation and increased life span (ILS) represented by T/C (T: MST for test groups; C: MST for control group) are shown in Table 3.

With `CO[C@@]12[C@H](COC(N)=O)C3=C(C(=O)C(C)=C(N)C3=O)N1C[C@@H]1N[C@@H]12` [Mitomycin C, mitomycin C] the MST (24 hours after implantation of 1 x 10⁶ P388 cells) was 17.2 days and the “ILS (T/C)” value (T: MST for test groups, C: MST for control group) was 166.
